The values that follow are results of earlier work, collected in patent publication US20130079371A1, “Bioadhesive Compositions of Local Anaesthetics” (PHARMANEST AB, priority 2010, published 2013).

Structures are written as SMILES.

For the compound `CCCCN1CCCC[C@H]1C(=O)Nc1c(C)cccc1C` [levobupivacaine], the pKa is on record as 8.1.
